Key:
PPARγ = PPARγ expression in liver of HFD mice (8 weeks); assay type: in vivo; conditions: animals treated with HFD
Description: (§1) In the 8 week experiment, C57BL/6J male mice (21-22 g), after fasting, were fed a HFD as a model of hyperlipidemia for 8 weeks. During the 2 month experiments, mice fasted for one night before the experiment was changed from a standard diet (STD) to a HFD and then the mice were randomly divided into 5 groups, including 2 control and 3 treatment groups. Six mice were used in each group. […] Liver from the protection group supplemented with KMUP-1 HCl (1 mg/kg/day) were used to determine the HMG CoA reductase expression.
(§2) For the expression of SR-B1, HMGR, PPARγ and ROCK isolated liver tissues were cut into small chips and placed into an extraction buffer (Tris 10 mM, pH 7.0, NaCl 140 mM, PMSF 2 mM, DTT 5 mM, NP-40 0.5%, pepstatin A 0.05 mM and leupeptin 0.2 mM) for hepatic protein extraction, and centrifuged at 20,000 g for 30 minutes. The obtained protein extract was boiled to a ratio of 4:1 with a sample buffer (Tris 100 mM, pH 6.8, glycerol 20%, SDS 4% and bromophenol blue 0.2%). Electrophoresis was performed using 10% SDS-polyacrylamide gel (1 hour, 100 V, 40 mA, 20 μg protein per lane).
(§3) Separated proteins, after 3 repeated centrifugations to discard up-layer tissue lipid inpurity, were transferred to PVDF membranes treated with 5% fat-free milk powder to block the nonspecific IgGs (90 minutes, 100 V) and incubated for 1 hour with specific protein antibody. […]

TNF-α = assay: IHC staining of TNF-α in steatohepatitis liver; assay type: in vivo, mice; conditions: 2.5 mg/kg/day, 14 weeks (protection) and 6 weeks (treatment)
Description: (§4) In the 14-week experiment, mice were fed a HFD from week 1 to week 14. During the 3 month experiments, KMUP-1 HCl (2.5 mg) was added to 200 ml tap water and) and drink for 14 weeks or for the last 6 weeks on mice or obese mice fed HFD, separately. 5 mice had free access to drinking water from week 1 to week 14 (protective group) or from week 8 to week 14 (treatment group). Tap water was used to normalize mineral nutrition (Scheme A).
(§5) For IHC of MMP-9/TNFα, HSL/p-HSL/ATGL and eNOS/IL-10, antigen retrieval of de-paraffinated sections was performed in Dako target retrieval solution, pH 9.0, in a vegetable steamer followed by the quenching of endogenous peroxidase activity with 3.0% H2O2 in methanol. Sections were then incubated with specific primary antibodies overnight at 4° C. in a humidified chamber. The antibodies used included rabbit polyclonal anti-eNOS (1:50 dilution) (Abcam, Cambridge, UK) or rabbit monoclonal anti-cleaved caspase-3 (1:50 dilution) (Cell Signaling, USA). The sections were then examined using a DAKO REAL EnVision™ Detection System kit (DAKO, Carpinteria, Calif.) and counterstained with hematoxylin. Images were obtained through a Nikon Eclipse TE200-S microscope.

PKG = PKG expression and immunoreactivity in HepG2 cells; assay type: cell-based
eNOS = eNOS expression in HepG2 cells; assay type: cell-based
Description: (§6) HepG2 cells were treated with various concentrations of drugs for 24 hours. Reactions were terminated by washing twice with cold PBS, and the cells were then harvested, Proteins in the whole-cell lysate were homogenized in an ice-cold lysis buffer and a protease inhibitor (Sigma-Aldrich, St. Louis, Mo., U.S.A.). The homogenate was centrifuged at 90, 000 g for 15 minutes at 4° C., and supernatant was recovered as the total cellular protein. Cytosolic and membrane fractions of HepG2 cells were prepared using a. CNM (Cytosol Nuclear Membrane) compartment protein extraction kit (BioChain Institute Inc., Hayward, Calif., U.S.A.) according to the manufacturer's instructions. All of the fractionated protein solutions were stored at −80° C. until analysis. To measure the expression levels of proteins by drugs, the total cell protein was extracted after incubation with treatments for 24 hours and then Western blotting analysis was performed as described previously.

p-HSL [1] = assay: Table 3 p-HSL (% of control); assay type: cell-based; conditions: control group = 100 (%)
ROCK II [2] = assay: ROCK II expression in liver of HFD mice (8 weeks); assay type: in vivo; conditions: animals treated with HFD
Description: as §1, §2, §3

HSL [3] = assay: IHC staining of HSL in epididymal fat pads; assay type: in vivo, mice; conditions: protection, 2.5 mg/kg/day
Description: as §5

ROCK II [4] = assay: ROCK II expression in HepG2 cells; assay type: cell-based
Description: as §6, with “-80°” for “−80°”

SR-B1 = assay: HFD-induced hepatic SR-B1 expression (14-week experiment); assay type: in vivo, mice; conditions: drinking KMUP-1
Description: as §4, §2
Separated proteins, after 3 repeated centrifugations to discard up-layer tissue lipid inpurity, were transferred to PVDF membranes treated with 5% fat-free milk powder to block the nonspecific IgGs (90 minutes, 100 V) and incubated for 1 hour with specific protein antibody. The blot was then incubated with anti-mouse or anti-goat IgG linked to alkaline phosphatase (1:1000) for 1 hour.

p-HSL [5] = assay: IHC staining of p-HSL in steatohepatitis liver; assay type: in vivo, mice; conditions: treatment and protection groups
Description: as §4, §5

ABCA1 = ABCA1 expression in HepG2 cells; assay type: cell-based
Description: as §6

Rho-kinase = assay: Table 3 Rho-kinase (% of control); assay type: cell-based; conditions: control group = 100 (%)
PKA = assay: Hepatic PKA expression (14-week experiment); assay type: in vivo, mice; conditions: drinking KMUP-1; protection and treatment groups
HSL [6] = assay: HSL immunoreactivity in HepG2 cells; assay type: cell-based

Cn1c(=O)c2c(ncn2CCN2CCN(c3ccccc3Cl)CC2)n(C)c1=O [KMUP-1, 7-[2-[4-(2-chlorophenyl)piperazinyl]ethyl]-1,3-dimethyl xanthine]
PPARγ in liver (PPARγ): activated
TNF-α immunohistochemistry on fatty liver slices (TNF-α): inhibited partial
expression of PKG (PKG; 10, 20, 40 µM, in the presence of LDL (500 μg/mL)): increased
PKG immunoreactivity (PKG; data not shown): not significantly affected
expression of eNOS (eNOS): concentration-dependently increased
p-HSL (p-HSL [1]; 0.1 μM): 120.7 ± 15.3%
p-HSL (p-HSL [1]; 1.0 μM): 138.6 ± 14.7%
p-HSL (p-HSL [1]; 10 μM): 144.6 ± 12.3%
ROCK II in liver (ROCK II [2]): inactivated
IHC staining of HSL in epididymal fat pads (HSL [3]): increased
ROCK II protein expression (ROCK II [4]; HepG2, 10^−9-10^−5 M): concentration-dependently reduced
Rp-8-pCPT-cGMPS-increased ROCK II expression (ROCK II [4]; HepG2, combination with KMUP-1 10 μM): inhibited
GGPP- and FPP-increased RhoA/ROCK II expression (ROCK II [4]; HepG2, in the presence of exogenous GGPP and FPP, 10^−9-10^−5M): attenuated
HFD-induced hepatic SR-B1 expression (SR-B1): inhibit
p-HSL (IHC, liver) (p-HSL [5]): activation
expression of ABCA1 (ABCA1; HepG2, 10^−9-10^−5 M): increased
FPP- or GGPP-suppressed expression of ABCA1 (ABCA1; HepG2, KMUP-1 10^−9-10^−5 M with FPP or GGPP): reversed
ABCA1 expression (FIG. 24D) (ABCA1; HepG2, simvastatin, KMUP-1, Y27632 10^−5M, C3 exoenzyme): increased
Rho-kinase (Rho-kinase; 0.1 μM): 82.8 ± 7.8%
Rho-kinase (Rho-kinase; 1.0 μM): 78.4 ± 6.9%
Rho-kinase (Rho-kinase; 10 μM): 75.8 ± 6.4%
hepatic PKA expression (PKA): promote
HSL immunoreactivity (green fluorescence) (HSL [6]): increased
